Columns and labels:
[1] = 7 weeks; EtOH group vs control group
Experimental: (§1) The following, non-limiting example, is directed to treatment of cancer (e.g., pancreatic cancer), internal pain or neural mediated hyperplasia in organs (e.g., benign prostatic hyperplasia). Pancreatic carcinoma cells (Mia PaCa2) were injected into the head of the pancreas of 10 athymic nude mice (subjects). A bolus of ethanol (50-75 uL) was administered to the celiac ganglion and surrounding nerves of five of the mice (i.e., the EtOH ablation group). The remaining five subjects constitute the untreated control group.
The experiment was terminated at 7 weeks.
(§2) The metastases per group were assessed during necropsy.

[2] = test system: Pancreatic carcinoma cells (Mia PaCa2)
Experimental: as §1
The mice were tracked for 7 weeks post procedure. Tumor growth rates in all subjects were monitored via bioluminescent imaging with an in vivo imaging system, i.e., IVIS Spectrum (Xenogen), twice weekly during the experiment.
as §2

[3] = test system: Mia PaCa2 human pancreatic cancer cells
Experimental: The following non-limiting example is directed at the treatment of neurogenic pathways for tumor growth and metastasis of pancreatic ductal adenocarcinoma (PDAC). A control experiment was performed with 10 athymic nude mice. The 10 mice were surgically prepared under anesthesia, and the surgical site was cleaned with 75% ethanol solution. A dorsal incision was used to access the spleen, pancreas and associated arterial supply. Mia PaCa2 human pancreatic cancer cells were seeded into the pancreas of each mouse. In 5 of the mice, the celiac ganglion and surrounding nerves were ablated with ethanol. The surgical procedures were completed and the mice were returned to Plexiglass boxes for observation.
The animals were monitored for detectable sickness related behavior and tumor growth was monitored via in vivo bioluminescent imaging techniques (IVIS® imaging system). Animals were monitored for relative changes in the following criteria: detectable sickness-related behavior, hunching and postural changes, signs of tumor growth in the animals' back (visible lumps), increases in piloerection, changes in skin tone and character, and changes in voluntary movement levels and exploratory behavior.

[4] = necropsy at 7 weeks, affected/total mice

Compound: CCO [EtOH, ethanol]
- overall size difference between subjects in the groups (FIG. 11c) [1]: no overall size difference
- median tumor size relative to the control group median tumor size ([2]; 3 weeks): less than 1%
- tumor growth rate compared with the control arm (FIG. 11a) ([2]; 3 weeks post procedure, median subject of each group, ethanol 50-75 uL): substantially decreased
- difference in bioluminescence between the median responders ([2]; 3 weeks post procedure, treatment arm vs control arm): ~100 ×
- mean tumor size relative to the control group ([2]; 3 weeks, 1-sided, alpha=0.05, n=5, p=0.11): half
- Occurrence of metastases by group: Liver [2, 4]: 0/5
- Occurrence of metastases by group: Local invasion [2, 4]: 2/5
- Occurrence of metastases by group: Stomach [2, 4]: 0/5
- Occurrence of metastases by group: Spleen ([2]; necropsy at 7 weeks, affected/total mice, nerves from pancreas to spleen not treated): 4/5
- incidence of metastases versus the untreated control group ([2]; necropsy at 7 weeks, including non-responder sub-group): considerably lower
- tumor mass versus subjects of the control group ([2]; subjects with ablated peri-pancreatic nerves, overall): less tumor mass
- skin tone and movement versus the control mice ([3]; 2 weeks post-surgery, celiac ganglion and surrounding nerves ablated with ethanol, n=5): improved skin tone and movement
- average tumor size relative to the average tumor size in the control group (IVIS luciferase ROI imaging) ([3]; 3 weeks, experimental group vs control group): 55%
